ChEMBL document CHEMBL1128564, “Inhibition of monoamine oxidase-B by 5H-indeno[1,2-c]pyridazines: biological activities, quantitative structure-activity relationships (QSARs) and 3D-QSARs” (J Med Chem, 1995)

Legend:
[1] = target: T1, Amine oxidase [flavin-containing] B (Rattus norvegicus, UniProt P19643); test: Ability to inhibit Monoamine oxidase B enzyme
T1 sequence (P19643 whole entry): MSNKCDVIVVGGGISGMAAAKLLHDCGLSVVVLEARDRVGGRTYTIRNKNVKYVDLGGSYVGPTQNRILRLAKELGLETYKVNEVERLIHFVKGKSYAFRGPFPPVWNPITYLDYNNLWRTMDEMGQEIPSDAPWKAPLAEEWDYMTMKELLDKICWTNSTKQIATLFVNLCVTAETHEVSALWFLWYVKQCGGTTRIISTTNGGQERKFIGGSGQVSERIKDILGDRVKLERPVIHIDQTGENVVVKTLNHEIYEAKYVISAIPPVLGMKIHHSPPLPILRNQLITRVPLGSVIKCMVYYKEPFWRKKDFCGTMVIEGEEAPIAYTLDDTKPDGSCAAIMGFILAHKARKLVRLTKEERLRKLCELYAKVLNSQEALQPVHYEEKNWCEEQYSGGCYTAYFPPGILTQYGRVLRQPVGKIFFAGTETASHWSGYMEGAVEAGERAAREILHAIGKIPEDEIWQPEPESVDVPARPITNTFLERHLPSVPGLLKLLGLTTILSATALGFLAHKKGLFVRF

[2] = target: T2, Amine oxidase [flavin-containing] A (Rattus norvegicus, UniProt P21396); test: Ability to inhibit Monoamine oxidase A enzyme
T2 sequence (P21396 whole entry): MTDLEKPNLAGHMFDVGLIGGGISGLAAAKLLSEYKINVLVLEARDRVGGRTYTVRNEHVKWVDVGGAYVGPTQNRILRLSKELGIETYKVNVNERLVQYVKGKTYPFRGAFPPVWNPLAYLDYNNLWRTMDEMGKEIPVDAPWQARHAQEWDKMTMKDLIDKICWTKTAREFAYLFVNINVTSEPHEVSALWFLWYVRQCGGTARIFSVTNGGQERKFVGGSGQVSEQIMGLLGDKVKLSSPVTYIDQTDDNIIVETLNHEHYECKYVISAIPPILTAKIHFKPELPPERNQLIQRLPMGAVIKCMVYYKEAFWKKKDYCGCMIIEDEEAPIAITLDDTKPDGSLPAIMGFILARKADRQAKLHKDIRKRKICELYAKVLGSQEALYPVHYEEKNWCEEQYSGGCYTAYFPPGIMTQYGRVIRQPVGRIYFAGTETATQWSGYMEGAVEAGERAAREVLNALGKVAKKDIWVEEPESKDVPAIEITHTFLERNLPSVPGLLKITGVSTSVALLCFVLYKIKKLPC

SMILES | IC50 [1] | IC50 [2]
O=C1c2ccccc2-c2nnc(-c3cccs3)cc21 | 1 µM | 1 µM
c1ccc(-c2cc3c(nn2)-c2ccccc2C3)cc1 | 23.4 µM | 
Cc1cc2c(nn1)-c1ccccc1C2=O |  | > 100 µM
O=C1c2ccccc2-c2nnc(CCc3ccccc3)cc21 |  | 50 µM
O=C(c1ccccc1)c1c(-c2ccccc2)nnc2c1C(=O)c1ccccc1-2 | 7.7 µM | 10 µM
Cc1c(-c2ccccc2)nnc2c1C(=O)c1ccccc1-2 | > 100 µM | 100 µM
O=C1c2ccccc2-c2nnc3c(c21)CCc1ccccc1-3 | 50 µM | 50 µM
O=C1c2ccccc2-c2nnc(/C=C/c3ccccc3)cc21 |  | > 1 µM
CC(=O)c1ccc(-c2cc3c(nn2)-c2ccccc2C3=O)cc1 |  | > 10 µM
CC(=O)Nc1ccc(-c2cc3c(nn2)-c2ccccc2C3=O)cc1 | > 10 µM | > 10 µM
O=C1c2ccccc2-c2nnc3ccc4ccccc4c3c21 | 10 µM | 10 µM
O=C1c2ccccc2-c2nnc(-c3ccco3)cc21 |  | > 50 µM
O=C1c2ccccc2-c2nnc(-c3ccccc3[N+](=O)[O-])cc21 |  | 100 µM
O=C1c2ccccc2-c2nncc(Cc3ccccc3)c21 | 50 µM | 50 µM
O=C1c2ccccc2-c2nnc(-c3cc(Cl)cc(Cl)c3)cc21 | 0.71 µM | 1 µM
O=C1c2ccccc2-c2nnccc21 | 27.5 µM | 97.6 µM
O=C1c2ccccc2-c2nnc(-c3ccc(C(F)(F)F)cc3)cc21 |  | 1 µM
O=C1c2ccccc2-c2nnc3ccccc3c21 | 1 µM | 1 µM
O=C1c2ccccc2-c2nnc(-c3ccccc3)c(Cc3ccccc3)c21 |  | > 10 µM

SMILES | IC50 [1] | IC50 [2]
CCCCOc1ccc(-c2cc3c(nn2)-c2ccccc2C3=O)cc1 | 10 µM | 10 µM
O=C1c2ccccc2-c2nnc(-c3cccc4ccccc34)cc21 | > 5 µM | 10 µM
O=C(c1ccccc1)c1cc2c(nn1)-c1ccccc1C2=O | 16.1 µM | > 50 µM
CCOC(=O)c1c(-c2ccccc2)nnc2c1C(=O)c1ccccc1-2 | 5.3 µM | > 50 µM
O=C1c2ccccc2-c2nncc(-c3ccccc3)c21 | 93.7 µM | 34.3 µM
O=C1c2ccccc2-c2nnc(C(F)(F)F)cc21 | > 25 µM | 25 µM
O=C1c2ccccc2-c2nnc(-c3cc(C(F)(F)F)cc(C(F)(F)F)c3)cc21 | > 2 µM | 1 µM
O=C1c2ccccc2-c2nnc(-c3ccc(N4CCCCC4)cc3)cc21 | 1 µM | 1 µM
Cc1nnc2c(c1-c1ccccc1)C(=O)c1ccccc1-2 |  | 50 µM
O=C1c2ccccc2-c2nnc3c(c21)CCCC3 | 100 µM | 50.5 µM
O=C1c2ccccc2-c2nnc(-c3ccccc3C(F)(F)F)cc21 | 10 µM | 10 µM
O=C1c2ccccc2-c2nnc(-c3ccccn3)cc21 | > 25 µM | 25 µM
COc1ccc(-c2cc3c(nn2)-c2ccccc2C3=O)cc1OC | 1 µM | 1 µM
O=C1c2ccccc2-c2nnc(Cc3ccccc3)cc21 |  | 100 µM
COc1ccc2c(c1)C(=O)c1cc(-c3cccc(C(F)(F)F)c3)nnc1-2 |  | 5 µM
Cc1nnc2c(c1Cc1ccccc1)C(=O)c1ccccc1-2 | 83.5 µM | 100 µM
O=C1c2ccccc2-c2nnc3c(c21)-c1ccccc1CC3 | 50 µM | 50 µM
O=C1c2cc(O)ccc2-c2nnc(-c3cccc(C(F)(F)F)c3)cc21 | 5.1 µM | 5 µM
O=C(O)CCc1cc2c(nn1)-c1ccccc1C2=O | 100 µM | 100 µM

Next, values leading:

IC50 [1] | IC50 [2] | SMILES
 | > 5 µM | O=C1c2ccccc2-c2nnc(-c3cccc(Cl)c3)cc21
 | 1 µM | O=C1c2ccccc2-c2nnc(-c3ccc(F)c(F)c3)cc21
 | 10 µM | Cc1ccccc1-c1cc2c(nn1)-c1ccccc1C2=O
 | > 50 µM | O=C1c2ccccc2-c2nnc(-c3ccccc3Cl)cc21
> 50 µM | 50 µM | COc1ccccc1-c1cc2c(nn1)-c1ccccc1C2=O
 | > 5 µM | O=C1c2ccccc2-c2nnc(-c3cccc(C(F)(F)F)c3)cc21
 | 25 µM | N#Cc1ccc(-c2cc3c(nn2)-c2ccccc2C3=O)cc1
 | 10 µM | COc1ccc(-c2cc3c(nn2)-c2ccccc2C3=O)cc1
> 1 µM | 1 µM | O=C1c2ccccc2-c2nnc(-c3ccccc3O)cc21
 | 10 µM | O=C1c2ccccc2-c2nnc(-c3ccc4ccccc4c3)cc21
 | 50 µM | COc1cccc(-c2cc3c(nn2)-c2ccccc2C3=O)c1
 | > 50 µM | O=C1c2ccccc2-c2nnc(-c3ccc(O)cc3)cc21
 | 25.9 µM | Nc1cccc(-c2cc3c(nn2)-c2ccccc2C3=O)c1
24.7 µM | 36.8 µM | Nc1ccc(-c2cc3c(nn2)-c2ccccc2C3=O)cc1
 | 1 µM | O=C1c2ccccc2-c2nnc(-c3ccc(Br)cc3)cc21
18.1 µM | > 20 µM | O=C1c2ccccc2-c2nnc(-c3ccccc3F)cc21
 | > 10 µM | N#Cc1cccc(-c2cc3c(nn2)-c2ccccc2C3=O)c1
 | 10 µM | O=C1c2ccccc2-c2nnc(-c3cccc(F)c3)cc21
> 1 µM | 1 µM | O=C1c2ccccc2-c2nnc(-c3cccc(O)c3)cc21
 | 1 µM | O=C1c2ccccc2-c2nnc(-c3cccc(Br)c3)cc21
 | > 5 µM | O=C1c2ccccc2-c2nnc(-c3ccc(Cl)cc3)cc21
> 0.5 µM | 1 µM | O=C1c2ccccc2-c2nnc(-c3cccc([N+](=O)[O-])c3)cc21
> 25 µM | > 25 µM | O=C1c2ccccc2-c2nnc(-c3cccnc3)cc21
 | 25 µM | O=C1c2ccccc2-c2nnc(-c3ccc([N+](=O)[O-])cc3)cc21
10 µM | 10 µM | COc1cc(-c2cc3c(nn2)-c2ccccc2C3=O)ccc1O
100 µM | 100 µM | O=C(O)c1ccc(-c2cc3c(nn2)-c2ccccc2C3=O)cc1
 | 25 µM | O=C1c2ccccc2-c2nnc(-c3ccccc3)cc21
 | 30.6 µM | O=C1c2ccccc2-c2nnc(-c3ccc(F)cc3)cc21
